Experiment [1] addresses T1, HIV reverse transcriptase (Human immunodeficiency virus type 1 group M subtype B, UniProt P04585).
T1 construct: purchased Boehringer Mannheim
As to the kind of experiment: In vitro inhibition test against HIV reverse transcriptase. In kind it is biochemical. The conditions noted are these: read-out: Inhibitory activity of HIV-RT (%); for inhibition at 0.1 µg/mL: 0.1 μg/ml; for inhibition at 1 µg/mL: 1 μg/ml. The method, then: Experiment 2: The in vitro Inhibition Test Against HIV Reverse Transcriptase
The inhibitory activity in vitro was measured using a non-radioactive reverse transcriptase assay Kit (Boehringer Mannheim).
At first, 20 μl(40 ng) of HIV-RT was added to the wells, coated with streptavidin and with the addition of 20 μl reaction mixture containing template/primer hybrid poly(A)/oligo(dT)15 and DIG-(digoxigenin)-dUTP, biotin-dUTP and TTP, 20 μl of test compound was added and reacted at 37° C. for 1 hour. The control without test compound was used for the comparison of related activity. Since DNA containing nucleotide labeled with digoxigenin and biotine was prepared by the action of HIV-RT, it was combined with streptavidin coated at the bottom of the wells. After the reaction was completed, remaining impurities were removed by washing each well with 250 μl buffer solution (pH 7.0) for 30 seconds 5 times and with the addition of 200 μl anti-DIG-POD antibody, the mixture was reacted at 37° C. for 1 hour. For the removal of remaining impurities again, the reacting solution was washed with a buffer solution and with the addition of 200 μl ABTS™ each, a substrate of POD(peroxidase), the solution was reacted at room temperature for 30 minutes. The absorbance was read by ELISA reader at 405 nm for the assay of reverse transcriptase activity and its inhibition activity.

The target in a further experiment is T2, HBV polymerase (Hepatitis B virus genotype D subtype ayw, UniProt P03156).
T2 construct: made in house; host or cells: E. coli
As to the kind of experiment: Inhibitory activities against HBV polymerase (reverse transcriptase activity) in vitro. In kind it is biochemical. As to conditions: read-out: Inhibitory activity of HBV-RT (%); for inhibition at 0.01 µg/mL: 0.01 μg/ml; for inhibition at 0.1 µg/mL: 0.1 μg/ml; for inhibition at 1 µg/mL: 1 μg/ml. The text has this:
Experiment 1:Inhibitory Activities Against HBV Polymerase in vitro
Recently, the inventors of the present invention have produced a recombinant HBV polymerase that is expressed from E.coli transformant, measured its enzyme activity and filed patent applications threrof [Korean Pat. Appl. Nos. 94-3918 and 96-33998].
The inventors have also established a method of measuring the reverse transcriptase activity of HBV polymerase in vitro. The fundamental principle is the same as the ELISA method, and after reacting the substrate with biotin- and DIG-modified nucleotide, a method of recognizing the polymerized substrate as anti-DIG antibody with peroxidase was used.
20 μl of HBV polymerase, 20 μl of reaction mixture and 20 μl of test compound was mixed and reacted at 14° C.~30° C. for 18~24 hours. Then, the inhibitory effect of the test compound against reverse transcriptase activity in the HBV polymerase was examined, compared with the results of control tests without the test compound.

Counter-ions that a name gives are not always drawn.

T2 sequence (P03156 whole entry): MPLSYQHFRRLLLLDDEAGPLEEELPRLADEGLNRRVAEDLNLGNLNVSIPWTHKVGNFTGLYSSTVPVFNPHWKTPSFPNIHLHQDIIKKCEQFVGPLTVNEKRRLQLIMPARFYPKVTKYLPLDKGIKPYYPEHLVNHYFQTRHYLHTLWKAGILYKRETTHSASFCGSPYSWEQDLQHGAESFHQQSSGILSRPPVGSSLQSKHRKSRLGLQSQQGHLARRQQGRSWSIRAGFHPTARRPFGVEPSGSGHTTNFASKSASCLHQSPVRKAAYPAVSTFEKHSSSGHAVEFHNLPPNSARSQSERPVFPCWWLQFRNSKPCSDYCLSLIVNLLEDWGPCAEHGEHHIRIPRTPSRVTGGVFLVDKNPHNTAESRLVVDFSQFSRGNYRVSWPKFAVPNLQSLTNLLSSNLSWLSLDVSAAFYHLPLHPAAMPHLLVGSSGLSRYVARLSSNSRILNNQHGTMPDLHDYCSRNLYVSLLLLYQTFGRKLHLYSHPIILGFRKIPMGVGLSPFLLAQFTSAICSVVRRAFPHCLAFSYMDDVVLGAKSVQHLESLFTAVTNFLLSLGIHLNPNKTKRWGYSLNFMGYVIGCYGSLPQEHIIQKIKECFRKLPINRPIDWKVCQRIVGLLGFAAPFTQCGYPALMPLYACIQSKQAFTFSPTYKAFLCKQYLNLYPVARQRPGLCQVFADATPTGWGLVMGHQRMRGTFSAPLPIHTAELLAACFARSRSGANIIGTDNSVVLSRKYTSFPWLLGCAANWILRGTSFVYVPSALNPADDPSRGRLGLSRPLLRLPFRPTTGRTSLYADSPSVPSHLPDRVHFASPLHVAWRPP

With `CC(C)Nc1cccnc1N1CCN(C(=O)c2ccc(C(=O)NC(C)(C)C)cn2)CC1` [Exam. 28, 5-[N-(1,1-dimethylethyl)carbamoyl]-2-[1-[3-(isopropylamino)-2-pyridyl]piperazin-4-yl-carbonyl]pyridine], in experiment [1], the inhibition at 0.1 µg/mL was found to be 45% and the inhibition at 1 µg/mL turned out to be 55%. On HBV polymerase, the inhibition at 0.01 µg/mL was 61%, the inhibition at 0.1 µg/mL was found to be 72% and the inhibition at 1 µg/mL is 88%.

For the compound `CC(C)CNC(=O)c1ccc(C(=O)N2CCN(c3ncccc3NC(C)C)CC2)nc1` [Exam. 30, 2-[1-[3-(isopropylamino)-2-pyridyl]piperazin-4-yl-carbonyl]-5-[N-(2-methylpropyl)carbamoyl]pyridine], in experiment [1], the inhibition at 0.1 µg/mL turned out to be 32% and the inhibition at 1 µg/mL is 58%. In addition, at HBV polymerase, the inhibition at 0.01 µg/mL came out at 61%, the inhibition at 0.1 µg/mL was 65% and the inhibition at 1 µg/mL is 83%.

For the compound `CCN(CC)C(=O)c1ccc(C(=O)N2CCN(c3ncccc3NC(C)C)CC2)nc1` [Exam. 33, 5-(N,N-diethylcarbamoyl)-2-[1-[3-(isopropylamino)-2-pyridyl]piperazin-4-yl-carbonyl]pyridine], in experiment [1], the inhibition at 0.1 µg/mL is 64% and the inhibition at 1 µg/mL stood at 80%. On HBV polymerase, the inhibition at 0.01 µg/mL came out at 20%, the inhibition at 0.1 µg/mL came to 62% and the inhibition at 1 µg/mL is 73%.

On to `CC(C)Nc1cccnc1N1CCN(C(=O)c2ccc(C(=O)NC3CC3)cn2)CC1` [Exam. 35, 5-(N-cyclopropylcarbamoyl)-2-[1-[3-(isopropylamino)-2-pyridyl]piperazin-4-yl-carbonyl]pyridine], for which, in experiment [1], the inhibition at 0.1 µg/mL came to 30% and the inhibition at 1 µg/mL is 68%. At HBV polymerase, the inhibition at 0.01 µg/mL was found to be 5%, the inhibition at 0.1 µg/mL stood at 51% and the inhibition at 1 µg/mL is 62%.

`CC(C)CNc1cccnc1N1CCN(C(=O)c2ccc(C(=O)NC3CC3)cn2)CC1` [Exam. 36]: in experiment [1], the inhibition at 0.1 µg/mL came to 60% and the inhibition at 1 µg/mL was 73%. In addition, on HBV polymerase, the inhibition at 0.01 µg/mL was found to be 60%, the inhibition at 0.1 µg/mL came out at 71% and the inhibition at 1 µg/mL worked out at 87%.

For the compound `CC(C)Nc1cccnc1N1CCN(C(=O)c2ccc(C(=O)NC3CCCC3)cn2)CC1` [Exam. 37, 5-(N-cyclopentylcarbamoyl)-2-[1-[3-(isopropylamino)-2-pyridyl]piperazin-4-yl-carbonyl]pyridine], in experiment [1], the inhibition at 0.1 µg/mL was found to be 25% and the inhibition at 1 µg/mL was 51%. Besides, at HBV polymerase, the inhibition at 0.01 µg/mL came out at 39%, the inhibition at 0.1 µg/mL stood at 65% and the inhibition at 1 µg/mL was determined as 75%.

In the case of `COCCNC(=O)c1ccc(C(=O)N2CCN(c3ncccc3NC(C)C)CC2)nc1` [Exam. 39, 2-[1-[3-(isopropylamino)-2-pyridyl]piperazin-4-yl-carbonyl]-5-[N-(2-methoxyethyl)carbamoyl]pyridine], in experiment [1], the inhibition at 0.1 µg/mL was 65% and the inhibition at 1 µg/mL was 72%. At HBV polymerase, the inhibition at 0.01 µg/mL is 60%, the inhibition at 0.1 µg/mL worked out at 68% and the inhibition at 1 µg/mL is 80%.

Consider `CCNc1cccnc1N1CCN(C(=O)c2ccc(C(=O)NCCOC)cn2)CC1` [Exam. 40, 2-[1-[3-(ethylamino)-2-pyridyl]piperazin-4-yl-carbonyl]-5-[N-(2-methoxyethyl)carbamoyl]-pyridine], for which, in experiment [1], the inhibition at 0.1 µg/mL worked out at 52% and the inhibition at 1 µg/mL was 70%. For the same compound, at HBV polymerase, the inhibition at 0.01 µg/mL was found to be 36%, the inhibition at 0.1 µg/mL was found to be 57% and the inhibition at 1 µg/mL worked out at 75%.

For the compound `COCCNC(=O)c1ccc(C(=O)N2CCN(c3ncccc3NCC(C)C)CC2)nc1` [Exam. 41, 2-[1-[3-(isobutylamino)-2-pyridyl]piperazin-4-yl-carbonyl]-5-[N-(2-methoxyethyl)carbamoyl]-pyridine], in experiment [1], the inhibition at 0.1 µg/mL is 34% and the inhibition at 1 µg/mL stood at 55%. Also, at HBV polymerase, the inhibition at 0.01 µg/mL is 52%, the inhibition at 0.1 µg/mL turned out to be 70% and the inhibition at 1 µg/mL turned out to be 85%.

For the compound `COCCN(CCOC)C(=O)c1ccc(C(=O)N2CCN(c3ncccc3NC(C)C)CC2)nc1` [Exam. 42, 5-[N,N-bis(2-methoxyethyl)carbamoyl]-2-[1-[3-(isopropylamino)-2-pyridyl]piperazin-4-yl-carbonyl]pyridine.HCl], in experiment [1], the inhibition at 0.1 µg/mL is 20% and the inhibition at 1 µg/mL amounted to 54%. Moreover, on HBV polymerase, the inhibition at 0.01 µg/mL was 15%, the inhibition at 0.1 µg/mL was 52% and the inhibition at 1 µg/mL was determined as 70%.

In the case of `COCC(C)NC(=O)c1ccc(C(=O)N2CCN(c3ncccc3NC(C)C)CC2)nc1` (stereo not drawn) [Exam. 43, 2-[1-[3-(isopropylamino)-2-pyridyl]piperazin-4-yl-carbonyl]-5-[N-(2-methoxy-1-methylethyl)carbamoyl]pyridine], in experiment [1], the inhibition at 0.1 µg/mL came out at 44% and the inhibition at 1 µg/mL worked out at 56%. Moreover, on HBV polymerase, the inhibition at 0.01 µg/mL came to 50%, the inhibition at 0.1 µg/mL was 61% and the inhibition at 1 µg/mL was found to be 68%.

As to `COCCCNC(=O)c1ccc(C(=O)N2CCN(c3ncccc3NC(C)C)CC2)nc1` [Exam. 45, 2-[1-[3-(isopropylamino)-2-pyridyl]piperazin-4-yl-carbonyl]-5-[N-(3-methoxypropyl)carbamoyl]pyridine], in experiment [1], the inhibition at 0.1 µg/mL is 47% and the inhibition at 1 µg/mL was 68%. Further, on HBV polymerase, the inhibition at 0.01 µg/mL came out at 28%, the inhibition at 0.1 µg/mL amounted to 53% and the inhibition at 1 µg/mL worked out at 63%.

With `COCCCNC(=O)c1ccc(C(=O)N2CCN(c3ncccc3NCC(C)C)CC2)nc1` [Exam. 47, 2-[1-[3-(isobutylamino)-2-pyridyl]piperazin-4-yl-carbonyl]-5-[N-(3-methoxypropyl)carbamoyl]pyridine], in experiment [1], the inhibition at 0.1 µg/mL came to 53% and the inhibition at 1 µg/mL is 69%. Besides, at HBV polymerase, the inhibition at 0.01 µg/mL was 20%, the inhibition at 0.1 µg/mL is 51% and the inhibition at 1 µg/mL amounted to 72%.

Regarding `CC(C)Nc1cccnc1N1CCN(C(=O)c2ccc(C(=O)NCCOCCO)cn2)CC1` [Exam. 48, 5-[N-[2-(2-hydroxyethoxy)ethyl]carbamoyl]-2-[1-[3-(isopropylamino)-2-pyridyl]piperazin-4-yl-carbonyl]pyridine], in experiment [1], the inhibition at 0.1 µg/mL is 41% and the inhibition at 1 µg/mL was found to be 52%. Further, at HBV polymerase, the inhibition at 0.01 µg/mL was determined as 52%, the inhibition at 0.1 µg/mL came out at 66% and the inhibition at 1 µg/mL came to 79%.

In the case of `COC(CN(C)C(=O)c1ccc(C(=O)N2CCN(c3ncccc3NC(C)C)CC2)nc1)OC` [Exam. 50, 5-[N-(2,2-dimethoxyethyl)-N-methylcarbamoyl]-2-[1-[3-(isopropylamino)-2-pyridyl]piperazin-4-yl-carbonyl]pyridine.HCl], in experiment [1], the inhibition at 0.1 µg/mL is 40% and the inhibition at 1 µg/mL was 55%. On HBV polymerase, the inhibition at 0.01 µg/mL is 15%, the inhibition at 0.1 µg/mL was found to be 51% and the inhibition at 1 µg/mL was found to be 60%.
